The values that follow come from publication doi:10.1101/2025.03.14.643303, “A genome-scale drug discovery pipeline uncovers new therapeutic targets and a unique p97 allosteric binding site in Schistosoma mansoni” (bioRxiv, 2025).

One test deals with adult S. mansoni worms. As to the kind of experiment: Treatment of adult S. mansoni worms in culture with inhibitors (attachment to tissue culture substrate, morphology; single 10 μM and dose-response EC50). In kind it is cell-based, Schistosoma mansoni. Conditions: for EC50: Schistosoma mansoni, read-out: S. mansoni EC50; for effect on adult worms: benzoxazole propiolamide series, treated 72 hours, monitored until D5; for effect on adult worms / time to detachment of adult worms in culture: 10 μM. The method, then:
Adult S. mansoni (NMRI strain) (6–7 weeks post-infection) worms were harvested from infected female Swiss Webster mice by hepatic portal vein perfusion using 37°C DMEM (Mediatech, Manassas, VA), 8% Horse Serum, and heparin.
Roughly 5 adult worm pairs were placed in 3mL Basch medium in a 12-well culture vessel, and incubated at 37°C, 5% CO2 for the length of the experiment. Compound was administered at D0, D1, and D2, media and drug refreshed every 24 hr. Worms were then allowed to remain in culture until D5, where a final assessment of worm attachment to tissue culture substate was made by light microscopy. Observations on movement and morphology were also recorded. A negative control (0.1% DMSO) and positive control (PZQ; 10 μM in 0.1% DMSO) were included in each experiment, and each experiment was repeated in triplicate for validation. For compounds that caused complete detachment in replicate experiments, the treatment was expanded to three concentrations (10 μM, 5 μM, and 1 μM) following the same treatment schedule and controls as detailed above. […] Each titration experiment was performed in triplicate according to the treatment regimen described above, using DMSO and PZQ as appropriate controls. Morphologies and motility were assessed by light microscopy, and dose-response curves were calculated using the primary readout of parasite attachment to tissue culture substrate in GraphPad Prism. […]
[…] Values were calculated using Prism.

The target of test [1] is S. mansoni p97 (Smp_018240) (Schistosoma mansoni, UniProt G4M0P7). Put plainly: biochemical. The conditions noted are these: for IC50: read-out: S. mansoni IC50. The procedure: E. coli BL21 (DE3) containing the desired plasmid were grown in LB medium containing […] kanamycin while shaking at 37 °C to an OD600 of 0.6–0.8. The temperature was reduced to 18°C and 0.8 mM isopropyl-beta-D-thiogalactopyranoside (IPTG) was added. The bacterial culture was harvested 16hr later by centrifugation. The resulting pellet was suspended in 60 mL lysis buffer/2L bacterial culture [20 mM Tris (pH 7.4), 300 mM NaCl, 5 mM MgCl2, 20 mM imidazole, 1% Triton X-100, 1 mg/mL lysozyme, 10% glycerol, 3 mM β-mercaptoethanol, 0.2 mM PMSF, and protease inhibitor tablet (Roche)]. […] The lysate was centrifuged at 40,000 × rpm for 35 min at 4°C. The resulting supernatant was incubated with Ni-NTA beads equilibrated to lysis buffer for 1 hr at 4°C before being loaded onto a gravity column. The bead bed was washed with wash buffer [20 mM Tris (pH 7.4), 500 mM NaCl, 5 mM MgCl2, 40 mM imidazole, 0.05% Triton X-100, 10% glycerol, 3 mM β-mercaptoethanol, 0.2 mM PMSF, 0.001 mg/mL Aprotinin, and 0.002 mg/mL Leupeptin], then eluted in the same buffer with 250 mM imidazole in wash buffer. Fractions containing p97 were concentrated using Pierce Protein Concentrators (100k MWCO) and loaded onto a gel-filtration column (Superdex 200PG) and eluted using SEC buffer [20 mM Tris (pH 7.4), 180 mM NaCl, 5 mM MgCl2, and 10% glycerol] at 0.5 mL/min flow rate on a BioRad NGC Chromatography System. Fractions corresponding to an apparent molecular weight of 500 – 600 kDa were collected and analyzed by 4–20% SDS/PAGE to evaluate purity. Concentration was determined using a BSA standard. Fractions containing purified protein were aliquoted, snap frozen in liquid nitrogen, and stored at −80 °C until use.
Chain of S. mansoni p97 (Smp_018240) (G4M0P7 entry or part of it): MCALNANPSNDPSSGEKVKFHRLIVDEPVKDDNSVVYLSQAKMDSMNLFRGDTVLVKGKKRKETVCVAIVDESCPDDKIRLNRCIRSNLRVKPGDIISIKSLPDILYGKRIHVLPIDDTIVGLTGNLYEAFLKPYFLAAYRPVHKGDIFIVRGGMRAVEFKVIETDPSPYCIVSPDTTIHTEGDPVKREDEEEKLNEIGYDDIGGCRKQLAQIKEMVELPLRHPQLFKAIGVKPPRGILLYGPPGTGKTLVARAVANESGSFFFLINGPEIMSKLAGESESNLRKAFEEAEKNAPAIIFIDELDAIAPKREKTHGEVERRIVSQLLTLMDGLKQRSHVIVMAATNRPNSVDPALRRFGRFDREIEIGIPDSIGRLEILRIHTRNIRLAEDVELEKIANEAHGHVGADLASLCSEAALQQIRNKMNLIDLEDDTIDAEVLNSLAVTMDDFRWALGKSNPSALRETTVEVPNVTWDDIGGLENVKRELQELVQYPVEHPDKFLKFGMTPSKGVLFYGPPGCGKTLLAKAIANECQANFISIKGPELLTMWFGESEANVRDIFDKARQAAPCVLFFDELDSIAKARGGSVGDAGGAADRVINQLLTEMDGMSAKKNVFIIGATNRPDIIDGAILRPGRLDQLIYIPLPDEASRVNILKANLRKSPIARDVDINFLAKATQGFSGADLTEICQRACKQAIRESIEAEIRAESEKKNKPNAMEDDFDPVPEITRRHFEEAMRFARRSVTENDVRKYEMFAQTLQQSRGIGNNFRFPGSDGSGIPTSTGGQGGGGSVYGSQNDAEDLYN
For manual ATP consumption assays, 1 μM p97 was incubated with 1% DMSO or inhibitor (1% DMSO final) in assay buffer [50 mM Tris (pH 7.5), 20 mM MgCl2, 1 mM EDTA, 0.5 mM tris(2-carboxyethyl)phosphine (TCEP)] for 5 minutes prior to the addition of 20 μM ATP in a 384-well plate for a total reaction volume of 10 μL, and a final concentration of 500nM enzyme and 10 μM ATP. The reaction was allowed to proceed for 50 minutes at room temperature before adding equivalent volume of Kinase-Glo Plus reagent (Promega), and a further incubation of 10 minutes in the dark.
IC50 values were calculated using GraphPad Prism.

Another test deals with T1, H. sapiens p97 (P55072) (Homo sapiens, UniProt P55072).
T1 construct: 6xHis (C); made in house; host or cells: E. coli BL21 (DE3)
T1 sequence (P55072 whole entry): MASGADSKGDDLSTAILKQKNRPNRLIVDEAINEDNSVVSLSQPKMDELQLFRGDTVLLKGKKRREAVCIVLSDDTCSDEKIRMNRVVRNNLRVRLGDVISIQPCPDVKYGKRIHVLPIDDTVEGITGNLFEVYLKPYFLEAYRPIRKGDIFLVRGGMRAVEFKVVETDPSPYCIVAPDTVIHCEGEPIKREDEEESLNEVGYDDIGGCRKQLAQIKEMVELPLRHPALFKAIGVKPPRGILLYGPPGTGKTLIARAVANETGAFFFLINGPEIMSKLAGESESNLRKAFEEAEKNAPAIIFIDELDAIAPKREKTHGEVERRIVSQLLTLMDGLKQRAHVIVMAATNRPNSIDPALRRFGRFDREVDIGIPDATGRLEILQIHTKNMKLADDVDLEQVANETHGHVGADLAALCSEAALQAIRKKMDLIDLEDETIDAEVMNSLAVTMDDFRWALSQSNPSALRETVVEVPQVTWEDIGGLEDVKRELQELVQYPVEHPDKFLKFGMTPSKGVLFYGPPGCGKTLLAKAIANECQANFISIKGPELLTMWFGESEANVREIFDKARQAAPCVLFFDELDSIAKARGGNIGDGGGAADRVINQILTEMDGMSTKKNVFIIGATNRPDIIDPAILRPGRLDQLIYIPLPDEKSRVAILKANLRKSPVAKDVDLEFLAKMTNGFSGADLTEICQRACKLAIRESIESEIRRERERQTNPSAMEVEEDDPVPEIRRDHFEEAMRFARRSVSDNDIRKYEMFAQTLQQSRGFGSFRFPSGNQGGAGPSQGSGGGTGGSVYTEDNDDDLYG
Put plainly: p97 ATPase activity, ATP consumption assay (Kinase-Glo), IC50 / counter screen. In kind it is biochemical. (In general: In Kinase-Glo more light means more ATP remaining.)

Test [2] has as its system S. mansoni vcp/p97 (Smp_018240). Put plainly: High-throughput screening (HTS) assay, Kinase-Glo, 10 μM single concentration. In kind it is biochemical, Schistosoma mansoni. Conditions: for Screen Inhibition: 10 μM compound, normalized to CB-5083, Fig. 4A; for inhibition of S. mansoni p97 function in the screen: high-throughput screen. From the text: Kinase-Glo (Promega, part K1214) was purchased from Promega. Microtiter plates (384 wells) were purchased from Perkin Elmer. All chemicals included in the UTSW library were sourced from commercial sources [ChemDiv (150,000 compounds), ChemBridge (125,500), ComGenex (22,000), Prestwick Chemical, (1,100) and TimTec (500)] or UT Southwestern chemists (https://www.utsouthwestern.edu/research/core-facilities/high-throughput-screening/libraries/). For initial screening, compounds were dispensed by Echo 555 robot for a final concentration of 10 μM (0.2% DMSO). Luminescence was read by EnVision multimode plate reader (Perkin-Elmer). Assay conditions were consistent between manual and high-throughput assays [10 μM ATP, 50 mM Tris (pH 7.5), 20 mM MgCl2, 1 mM EDTA, 0.5 mM tris(2-carboxyethyl)phosphine (TCEP)]. The plates were then incubated for 50 min at room temperature before addition of Kinase-Glo reagent and further incubation in the dark for 10 minutes before reading luminescence. […] Hit compounds were validated using a dose-response curve (19.8 μM, 9.92 μM, 4.96 μM, 3.72 μM, 2.48 μM, 1,24 μM, 0.619 μM, 0.342 μM, 0.256 μM, 0.171 μM, 0.0854 μM, 0.0427 μM, and 0 μM) in triplicate. Compounds were also subjected to a counter screen using a dose-response curve against the full-length human p97 enzyme to determine preliminary selectivity.

The next test has as its system HepG2 cells. Put plainly: HepG2 cytotoxicity assay (Cell Titer Glo 2.0). The conditions noted are these: Homo sapiens. Type of test: cell-based, human. The procedure: HepG2 cells (ATCC) were plated at 2500 cells/well in 50 μL/well, dispersing cells using a 25g needle to break up clumps prior to plating. Plates were incubated for 24hr at 37C, 5% CO2. Following 24hr, 50 μL media containing 0.6% DMSO was added to a set of wells on one plate. The plate and Cell Titer Glo 2.0 reagent were brought to RT. A T=0 read was taken by adding 40 μL reagent/well, rocking the plate at 100 rpm for 2 min, then reading luminescence ~10 min later. […] 50 μL 2x concentrated compound was added to wells containing cells in 50 μL 24 hr after plating. Concentrations were tested in triplicate at following values: 30, 10, 3.3, 1.1, 0.37, 0.12, and 0.04 μM. Plates were incubated for 72 hr at 37C, 5% CO2. Following equilibration to room temperature, 40 μL undiluted reagent was added to each well, the plate rocked at 100 rpm for 2 min and then read for luminescent signal ~10 min later.
Values are plotted in excel and the 50% point determined by interpolation. Values were revisualized in Prism.
A general note: In ATP-based viability assays light output follows the ATP content of the culture.

Setting [3] is: Smp97, re-tested screen compounds, 100 μM-1 nM, Fig. 4A.
The mark [4] stands for this setting: Hsp97, re-tested screen compounds, 100 μM-1 nM, Fig. 4A.
Where [5] appears, read: H. sapiens vs S. mansoni p97 IC50, Suppl. Fig. 11D.

“Also recorded” adds a separate entry of the source. Where two headings read alike, the source gives them in different places. Some results are limits rather than exact numbers.

Usually EC50 stands for the concentration giving half of the maximal effect. The term IC50 denotes the concentration at which inhibition is half-maximal. For `O=C(C#Cc1ccccc1)Nc1ccc2oc(-c3cccnc3)nc2c1` [Compound 244, 3-phenyl-N-(2-(pyridin-3-yl)benzo[d]oxazol-5-yl)propiolamide], the EC50 with adult S. mansoni worms is 25 µM. Also, in the test with adult S. mansoni worms, the “effect on adult worms” value was “did not have any adverse effects on worm health and survival”. Further, the IC50 in test [1] (p97 enzyme, Suppl. Fig. 11D) was over 100 µM; on H. sapiens p97 (P55072) (p97 enzyme, Suppl. Fig. 11D) it was over 100 µM. For the same compound, the “activity on the enzyme” value in test [1] (schistosome p97) was “minimal activity on the enzyme”. In test [2], the “Screen Inhibition” value is listed as 16%.

Regarding `O=C(C=Cc1ccccc1)Nc1ccc2oc(-c3ccccc3)nc2c1` [Compound 135, N-(2-phenylbenzo[d]oxazol-5-yl)cinnamamide], the IC50 (in test [1] (setting [3]); against H. sapiens p97 (P55072) (setting [4])) was over 100 µM throughout. The “Screen Inhibition” value in test [2] was 1.1%. In test [2], the “inhibition of S. mansoni p97 function in the screen” value (“inhibition … in the screen” for short) was “inactive”.

For `O=C(/C=C\c1ccccc1)Nc1ccc2oc(-c3ccccc3)nc2c1` [Compound 324, (Z)-3-phenyl-N-(2-phenylbenzo[d]oxazol-5-yl)acrylamide], the IC50 (in test [1] (setting [3]); on H. sapiens p97 (P55072) (setting [4])) was over 100 µM throughout. Besides, in test [2], the “Screen Inhibition” value was 1.1%. Besides, the “inhibition … in the screen” value in test [2] was “inactive”.

For `O=C(C#Cc1ccccc1)Nc1ccc2oc(-c3ccncc3)nc2c1` [Compound 242, 3-phenyl-N-(2-(pyridin-4-yl)benzo[d]oxazol-5-yl)propiolamide], in the test on adult S. mansoni worms, the “time to detachment of adult worms in culture” value is at most 48 h, the EC50 was 9.9 µM and the “effect on adult worms” value is recorded as “led to death in adult parasites; also recorded: ultimately leading to their death”. The “Fold Selectivity” value in test [1] (setting [5]) came to 8.6. Moreover, the 50% inhibitory concentration (IC50) in test [1] (p97 enzyme, Suppl. Fig. 11D) was determined as 1.4 ± 0.11 µM. On H. sapiens p97 (P55072) (p97 enzyme, Suppl. Fig. 11D), this compound came in with a concentration for half-maximal inhibition (IC50) of 12 ± 0.31 µM. The “Screen Inhibition” value in test [2] was 47%.

For `O=C(CCc1ccccc1)Nc1ccc2oc(-c3ccccn3)nc2c1` [Compound 326, 3-phenyl-N-(2-(pyridin-2-yl)benzo[d]oxazol-5-yl)propanamide], the half-inhibitory concentration (IC50) in test [1] (setting [3]) was over 100 µM. Moreover, on H. sapiens p97 (P55072) (setting [4]), the IC50 was over 100 µM. Also, in test [2], the “Screen Inhibition” value was 2.2% and the “inhibition … in the screen” value was “inactive”.

As to `O=C(C#Cc1ccccc1)Nc1ccc2oc(-c3ccccc3)nc2c1` [Compound 245, 3-phenyl-N-(2-phenylbenzo[d]oxazol-5-yl)propiolamide], the EC50 in the test with adult S. mansoni worms is 12 µM. Besides, the “effect on adult worms” value in the test on adult S. mansoni worms is “did cause detachment, it did not lead to parasite death”. For the same compound, the “Fold Selectivity” value in test [1] (setting [5]) is given as over 30. For the same compound, the IC50 in test [1] (p97 enzyme, Suppl. Fig. 11D) is 3.8 ± 0.19 µM; against H. sapiens p97 (P55072) (p97 enzyme, Suppl. Fig. 11D), over 100 µM. Besides, the “Screen Inhibition” value in test [2] is given as 36%.

The term GI50 denotes the concentration giving 50% growth inhibition. In the case of `O=C(C#Cc1ccccc1)Nc1ccc2oc(-c3ccccn3)nc2c1` [Compound 243, 3-phenyl-N-(2-(pyridin-2-yl)benzo[d]oxazol-5-yl)propiolamide], in the test with adult S. mansoni worms, the “time to detachment of adult worms in culture” value is at most 48 h. For the same compound, the EC50 in the test with adult S. mansoni worms (adult parasites, fraction of worms attached, 72 hours of drug treatment, in culture until D5, 50 μM - 10 nM, Suppl. Fig. 9C) was 3.5 µM. The “effect on adult worms” value in the test on adult S. mansoni worms is “led to death in adult parasites; also recorded: ultimately leading to their death”. For the same compound, the “Fold Selectivity” value in test [1] is 9.5. For the same compound, the IC50 was determined as 2.1 ± 0.75 µM in test [1] (Sm p97, 100 μM – 1 nM, Suppl. Fig. 9C); 2.1 ± 0.75 µM in test [1] (setting [3]); 2.1 ± 0.75 µM in test [1] (p97 enzyme, Suppl. Fig. 11D); 2.1 ± 0.75 µM in test [1] (recombinant parasite enzyme, 100 μM-1 nM, Fig. 4D); 20 ± 0.54 µM at H. sapiens p97 (P55072) (Hs p97, 100 μM – 1 nM, Suppl. Fig. 9C); 20 ± 0.54 µM against H. sapiens p97 (P55072) (setting [4]). Also, the IC50 amounted to 20 ± 0.54 µM on H. sapiens p97 (P55072) (p97 enzyme, Suppl. Fig. 11D); 20 ± 0.54 µM on H. sapiens p97 (P55072) (recombinant human enzyme, 100 μM-1 nM, Fig. 4D); 9.6 µM with HepG2 cells (HepG2, 72 h); 9.6 µM with HepG2 cells (HepG2, read-out: HepG2 IC50). The “Screen Inhibition” value in test [2] amounted to 46%. In addition, the GI50 came out at 5.6 µM with HepG2 cells (HepG2, 72 h) and 5.6 µM with HepG2 cells (HepG2, read-out: HepG2 GI50).
